Results on 20 compounds are retold here after patent US12312359B2 (Vitae Pharmaceuticals, LLC, priority 2016, dated 2025).

The subject of assay [1] is human acute monocytic leukemia cell line MV-4-11. Nature of the assay: Assay 2: cell proliferation assay (ATP quantitation, CellTiter-Glo), MV-4-11. It is filed as cell-based. As to conditions: Homo sapiens, MV4-11, 72 h, MV-4-11 cells. In outline: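 MV-4-11 cells, 1.67×10^4 per well in medium with 10% FBS, were exposed to compound for 72 h at 37° C., 5% CO2; HL-60 cells served as toxicity control. Proliferation read as ATP content by CellTiter-Glo luminescence.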
(ATP-based viability assays read luminescence as a measure of living cells.)

The target in assay [2] is T1, biotinylated wild-type menin and MLL-AF9 fusion protein (menin/MLL binding) (Homo sapiens, UniProt O00255).
T1 construct: made in house; host or cells: menin: E. coli; MLL-AF9-FLAG: HEK293 cells, used as cleared lysate
T1 sequence (O00255 1-610): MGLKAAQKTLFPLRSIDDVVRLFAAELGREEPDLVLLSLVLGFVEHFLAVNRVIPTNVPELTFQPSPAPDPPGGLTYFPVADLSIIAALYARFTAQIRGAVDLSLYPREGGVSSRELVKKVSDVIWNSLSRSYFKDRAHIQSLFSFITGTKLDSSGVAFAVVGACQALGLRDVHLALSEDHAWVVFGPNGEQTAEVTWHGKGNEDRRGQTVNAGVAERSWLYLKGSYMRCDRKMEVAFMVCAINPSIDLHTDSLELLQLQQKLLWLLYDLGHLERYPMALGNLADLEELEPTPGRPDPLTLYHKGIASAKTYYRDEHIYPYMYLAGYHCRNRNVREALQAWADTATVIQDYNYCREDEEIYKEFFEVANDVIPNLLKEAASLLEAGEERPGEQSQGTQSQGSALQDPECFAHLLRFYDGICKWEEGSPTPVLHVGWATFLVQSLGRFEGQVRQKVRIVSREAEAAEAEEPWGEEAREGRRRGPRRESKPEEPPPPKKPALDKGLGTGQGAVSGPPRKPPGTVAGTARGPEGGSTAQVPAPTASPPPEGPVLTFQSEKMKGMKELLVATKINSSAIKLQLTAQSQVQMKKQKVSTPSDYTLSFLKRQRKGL
Put plainly: Assay 1: menin/MLL binding AlphaLISA assay, wild-type menin. Particulars: Table 30; column head does not say wild-type or mutated menin. In outline: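 Compound was preincubated 30 min at room temperature with biotinylated menin (5 nM) and MLL-AF9-FLAG lysate from HEK293 cells, pH 7.4 buffer with 5% DMSO and DTT. Bead-based Alpha signal after 60 min with streptavidin donor and anti-FLAG acceptor beads; four-parameter logistic fit gave IC50.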
(In general: Alpha assays give light when donor and acceptor beads are brought close together.)

For orientation: EC50 means the concentration at which the effect is half-maximal. High values mean a need for much substance, low ones an effect from little substance. By IC50 is commonly meant the point on the concentration scale where inhibition reaches its midpoint. The low end stands for greater potency in that assay, the high end for weaker potency in that assay.

A value given as a limit tells only on which side of the number the result lay.

As to `CC(CO)c1ccccc1-c1cc(F)ccc1Oc1cncnc1N1CCC2(CCN(Cc3ccc4[nH]c(=O)[nH]c4c3)C2)C1` (stereo not shown) [Example 69, 5-((7-(5-((5-fluoro-2′-(1-hydroxypropan-2-yl)-[1,1′-biphenyl]-2-yl)oxy)pyrimidin-4-yl)-2,7-diazaspiro[4.4]nonan-2-yl)methyl)-1H-benzo[d]imidazol-2(3H)-one], in assay [1], the EC50 was < 100 nM. In assay [2], the IC50 was < 100 nM.

For `O=c1[nH]c2ccc(CN3CCC4(CCN(c5ncncc5Oc5ccc(F)cc5CN5CCOCC5)C4)C3)cc2[nH]1` (stereo not shown) [Example 70, 5-((7-(5-(4-fluoro-2-(morpholinomethyl)phenoxy)pyrimidin-4-yl)-2,7-diazaspiro[4.4]nonan-2-yl)methyl)-1H-benzo[d]imidazol-2(3H)-one], the EC50 in assay [1] was < 100 nM. Besides, in assay [2], the half-maximal inhibitory concentration (IC50) is < 100 nM.

Regarding `CC(C)n1nc(C(F)(F)F)cc1-c1cc(F)ccc1Oc1cncnc1N1CC2(CN(CC3(O)CCCCC3)C2)C1` [Example 72, 1-((6-(5-(4-fluoro-2-(1-isopropyl-3-(trifluoromethyl)-1H-pyrazol-5-yl)phenoxy)pyrimidin-4-yl)-2,6-diazaspiro[3.3]heptan-2-yl)methyl)cyclohexan-1-ol], in assay [1], the EC50 lay within 100 to 1000 nM. In assay [2], the half-inhibitory concentration (IC50) was < 100 nM.

In assay [1], `CC(C)C(=O)N(CC(N)=O)c1cc(F)ccc1Oc1cncnc1N1CCC2(CCN(Cc3ccc4[nH]c(=O)[nH]c4c3)C2)C1` (stereo not shown) [Example 73, N-(2-amino-2-oxoethyl)-N-(5-fluoro-2-((4-(7-((2-oxo-2,3-dihydro-1H-benzo[d]imidazol-5-yl)methyl)-2,7-diazaspiro[4.4]nonan-2-yl)pyrimidin-5-yl)oxy)phenyl)isobutyramide] had a half-maximal effective concentration (EC50) of 100 to 1000 nM. Also, the IC50 in assay [2] was < 100 nM.

`CC(C)C(=O)N(C)c1cc(F)ccc1Oc1cncnc1N1CCC2(CCN(Cc3ccc4[nH]c(=O)[nH]c4c3)C2)C1` (stereo not shown) [Example 76, N-(5-fluoro-2-((4-(7-((2-oxo-2,3-dihydro-1H-benzo[d]imidazol-5-yl)methyl)-2,7-diazaspiro[4.4]nonan-2-yl)pyrimidin-5-yl)oxy)phenyl)-N-methylisobutyramide]: in assay [1], the EC50 was < 100 nM. Further, the IC50 in assay [2] was < 100 nM.

As to `O=c1[nH]c2ccc(CN3CCC4(CCN(c5ncncc5Oc5ccc(F)cc5Cc5ccccc5)C4)C3)cc2[nH]1` (stereo not shown) [Example 77], the EC50 in assay [1] was ≥ 1000 nM. In addition, the IC50 in assay [2] was < 100 nM.

In the case of `Cn1c(-c2cc(F)ccc2Oc2cncnc2N2CC3(CCN(C[C@H]4CC[C@H](NC(=O)C(F)(F)F)CC4)CC3)C2)c(C2CC2)ccc1=O` [Example 79, N-((1r,4r)-4-((2-(5-(2-(3-cyclopropyl-1-methyl-6-oxo-1,6-dihydropyridin-2-yl)-4-fluorophenoxy)pyrimidin-4-yl)-2,7-diazaspiro[3.5]nonan-7-yl)methyl)cyclohexyl)-2,2,2-trifluoroacetamide], the EC50 in assay [1] is < 100 nM. Moreover, in assay [2], the IC50 was < 100 nM.

In the case of `Cn1c(-c2cc(F)ccc2Oc2cncnc2N2CC3(CCN(CC4CCC(NS(C)(=O)=O)CC4)CC3)C2)c(C2CC2)ccc1=O` (stereo not shown) [Example 80, N-(4-((2-(5-(2-(3-cyclopropyl-1-methyl-6-oxo-1,6-dihydropyridin-2-yl)-4-fluorophenoxy)pyrimidin-4-yl)-2,7-diazaspiro[3.5]nonan-7-yl)methyl)cyclohexyl) methanesulfon-amide], in assay [1], the EC50 is < 100 nM. Moreover, in assay [2], the IC50 was < 100 nM.

On to `N[C@H]1CC[C@H](CCN2CC3(C2)CN(c2ncncc2Oc2ccc(F)cc2-c2cccnc2C2CC2)C3)CC1` [Example 82, (1r,4r)-4-(2-(6-(5-(2-(2-cyclopropylpyridin-3-yl)-4-fluorophenoxy)pyrimidin-4-yl)-2,6-diazaspiro[3.3]heptan-2-yl)ethyl)cyclohexan-1-amine], for which, in assay [1], the EC50 was 100 to 1000 nM. The IC50 in assay [2] was < 100 nM.

With `CC(C)N(C)C(=O)c1cc(F)ccc1Oc1cncnc1N1CC2(CC(NC[C@H]3CC[C@H](NC(=O)OC(C)(C)C)CC3)C2)C1` [Example 83, tert-butyl ((1r,4r)-4-(((2-(5-(4-fluoro-2-(isopropyl(methyl)carbamoyl)phenoxy)pyrimidin-4-yl)-2-azaspiro[3.3]heptan-6-yl)amino)methyl)cyclohexyl)carbamate], the EC50 in assay [1] was 100 to 1000 nM. Moreover, in assay [2], the IC50 is < 100 nM.

Turning to `CCN(C(=O)C(C)C)c1cc(F)ccc1Oc1cncnc1N1CC2(CCN(C[C@H]3CC[C@H](NC(=O)OC(C)(C)C)CC3)CC2)C1` [Example 84, tert-butyl ((1r,4r)-4-((2-(5-(2-(N-ethylisobutyramido)-4-fluorophenoxy)pyrimidin-4-yl)-2,7-diazaspiro[3.5]nonan-7-yl)methyl)cyclohexyl) carbamate], in assay [1], the EC50 is < 100 nM. In addition, the IC50 in assay [2] is < 100 nM.

`CCN(C(=O)C(C)C)c1cc(F)ccc1Oc1cncnc1N1CC2(CCN(C[C@H]3CC[C@H](NC(=O)OC)CC3)CC2)C1` [Example 85, methyl ((1r,4r)-4-((2-(5-(2-(N-ethylisobutyramido)-4-fluorophenoxy)pyrimidin-4-yl)-2,7-diazaspiro[3.5]nonan-7-yl)methyl)cyclohexyl) carbamate] registered an EC50 in assay [1] of 100 to 1000 nM. Moreover, in assay [2], the IC50 was < 100 nM.

Take `CCN(C(=O)C(C)C)c1cc(F)ccc1Oc1cncnc1N1CC2(CCN(C[C@H]3CC[C@H](NS(C)(=O)=O)CC3)CC2)C1` [Example 86, N-ethyl-N-(5-fluoro-2-((4-(7-(((1r,4r)-4-(methylsulfonamido)cyclohexyl)methyl)-2,7-diazaspiro [3.5]nonan-2-yl)pyrimidin-5-yl)oxy)phenyl)iso-butyramide]: the 50% effective concentration (EC50) in assay [1] is < 100 nM. Moreover, in assay [2], the IC50 was < 100 nM.

On to `CC(C)N(C(=O)c1cc(F)ccc1Oc1cncnc1N1CC2(CN(CC[C@H]3CC[C@H](NC(=O)CC(C)(C)C)CC3)C2)C1)C(C)C` [Example 87, 2-((4-(6-(2-((1r,4r)-4-(3,3-dimethyl-butanamido)cyclo-hexyl)ethyl)-2,6-diazaspiro[3.3]heptan-2-yl)pyrimidin-5-yl)oxy)-5-fluoro-N,N-diisopropyl-benzamide], for which the 50% effective concentration (EC50) in assay [1] lay within 100 to 1000 nM. In assay [2], the IC50 is < 100 nM.

Turning to `CC(C)(C)OC(=O)N[C@H]1CC[C@H](CCN2CC3(C2)CN(c2ncncc2Oc2ccc(F)cc2-c2cccnc2C2CC2)C3)CC1` [Example 88, tert-butyl ((1r,4r)-4-(2-(6-(5-(2-(2-cyclopropylpyridin-3-yl)-4-fluorophenoxy)pyrimidin-4-yl)-2,6-diazaspiro[3.3]heptan-2-yl)ethyl)cyclohexyl) carbamate], the concentration giving a half-maximal response (EC50) in assay [1] is < 100 nM. Further, the IC50 in assay [2] was < 100 nM.

`CC(C)N(C(=O)c1cc(F)ccc1Oc1cncnc1N1CC2(CCN(CC(C)(C)O)CC2)C1)C(C)C` [Example 89, 5-fluoro-2-((4-(7-(2-hydroxy-2-methylpropyl)-2,7-diazaspiro[3.5]nonan-2-yl)pyrimidin-5-yl)oxy)-N,N-diisopropylbenzamide] came in with an EC50 in assay [1] of 100 to 1000 nM. The IC50 in assay [2] was < 100 nM.

On to `CC(C)N(C(=O)c1cc(F)ccc1Oc1cncnc1N1CCC2(CCN(Cc3ccc4c(c3)NC(=O)C4(C)C#N)C2)C1)C(C)C` (stereo not shown) [Example 90, 2-((4-(7-((3-cyano-3-methyl-2-oxoindolin-6-yl)methyl)-2,7-diazaspiro[4.4]nonan-2-yl)pyrimidin-5-yl)oxy)-5-fluoro-N,N-diisopropylbenzamide], for which, in assay [1], the EC50 was < 100 nM. Further, the half-inhibitory concentration (IC50) in assay [2] is < 100 nM.

Regarding `CCN(C(=O)OC)c1cc(F)ccc1Oc1cncnc1N1CCC2(CCN(Cc3ccc4[nH]c(=O)[nH]c4c3)C2)C1` (stereo not shown) [Example 91, methyl ethyl(5-fluoro-2-((4-(7-((2-oxo-2,3-dihydro-1H-benzo[d]imidazol-5-yl)methyl)-2,7-diazaspiro [4.4]nonan-2-yl)pyrimidin-5-yl)oxy)phenyl) carbamate], in assay [1], the EC50 is < 100 nM. The IC50 in assay [2] is < 100 nM.

`CC(C)N(C)C(=O)c1cc(F)ccc1Oc1cncnc1N1CC2(CC(NC3CCOCC3)C2)C1` [Example 92, 5-fluoro-N-isopropyl-N-methyl-2-((4-(6-((tetrahydro-2H-pyran-4-yl)amino)-2-azaspiro[3.3]heptan-2-yl)pyrimidin-5-yl)oxy)benzamide] yielded an EC50 in assay [1] of 100 to 1000 nM. In assay [2], the IC50 is < 100 nM.

Compound `CC(C)N(C)C(=O)c1cc(F)ccc1Oc1cncnc1N1CC2(CCN(C[C@H]3CC[C@H](NS(C)(=O)=O)CC3)CC2)C1` [Example 93, 5-fluoro-N-isopropyl-N-methyl-2-((4-(7-(((1r,4r)-4-(methylsulfonamido)cyclohexyl)methyl)-2,7-diazaspiro [3.5]nonan-2-yl)pyrimidin-5-yl)oxy)benzamide] returned an EC50 in assay [1] of 100 to 1000 nM. Besides, the IC50 in assay [2] is < 100 nM.
